Laboratory results published in patent US20220378923A1, “BET DEGRADER” (KYOWA KIRIN CO., LTD., priority 2019, published 2022).

System: DCAF16 KO SU-DHL-4 cells
Experiment: Inhibitory effect on cell viability using SU-DHL-4 DCAF16 knock out (KO) cell line (Test Example 6)
Type: cell-based, human
Conditions: for Activity Attenuation Ratio: (SU-DHL-4 DCAF16 KO IC50)/(SU-DHL-4 WT IC50); for IC50: DCAF16 KO SU-DHL-4 cells, 72 hours, Cell Counting Kit-8, 50% inhibition of cell viability
Protocol: The human DLBCL cell line SU-DHL-4 was purchased from DSMZ. SU-DHL-4 was passaged using RPMI1640 medium containing 10 vol % FBS. After the Cas9 gene was introduced, the cells were cultured in the above medium containing 0.01 mg/mL blasticidin (InvivoGen, Cat No. ant-bl-1). After introduction of sgRNA, the cells were cultured in the above medium containing 0.0001 mg/mL puromycin dihydrochloride (SIGMA, Cat No. P9020-10 ML). The culture conditions were 37° C. and 5% CO2.
Edit-R Lentiviral hEF1α-Blast-Cas9 Nuclease Particles (Cat No. VCAS10126) was used as a lentivirus for expressing Cas9 in human cell lines. Three types of Edit-R Human DCAF16 Lentiviral sgRNA (Cat No. VSGH10142-246568260; DNA target sequence […] (SEQ ID NO: 1), Cat No. VSGH10142-246568262; DNA target sequence […] (SEQ ID NO: 2) and Cat No. VSGH10142-246568263; DNA target sequence […] (SEQ ID NO: 3)) were used as lentiviruses for introducing DCAF16 sgRNA. As a control, Edit-R Lentiviral sgRNA Non-targeting Control #1 (Cat No. VSGC10215) was used. All lentiviruses were purchased from Dharmacon and stored at −80° C. until use.
SU-DHL-4 was suspended at 4×10^5 cells/mL in RPMI 1640 without FBS, 0.25 mL of the suspension was added to a 24-well plate, and the cells were cultured overnight. The next day, 0.003 mL of virus particles of Edit-R Lentiviral hEF1α-Blast-Cas9 Nuclease Particles was added. After culturing in a CO2 incubator for 4 hours, RPMI 1640 containing 0.75 mL of 10 vol % FBS was added. After culturing in a CO2 incubator for about 48 hours, the medium was replaced with RPMI1640 containing 10 vol % FBS, and the cells were cultured in a CO2 incubator. Four days after infection, the medium was replaced with a medium containing 0.01 mg/mL blasticidin (InvivoGen, Cat No. ant-bl-1). Then, the cells were passaged once every 2 to 3 days and thus twice in total (that is, cultured for 1 week) to obtain SU-DHL-4/Cas9, which is a Cas9-introduced SU-DHL-4 cell line.
(6) sgRNA infection SU-DHL-4/Cas9 was suspended at 4×10^5 cells/mL in RPMI 1640 without FBS, 0.25 mL of the suspension was added to a 24-well plate, and the cells were cultured overnight. The next day, a total of 4 types of sgRNA virus particles, 1 type of Control and 3 types targeting DCAF16 were added to the respective wells by 0.03 mL. After culturing in a CO2 incubator for 5 hours, RPMI 1640 containing 0.75 mL of 10 vol % FBS was added.
After culturing in a CO2 incubator for about 48 hours, the medium was replaced with RPMI1640 containing 10 vol % FBS, and the cells were cultured in a CO2 incubator. Four days after infection, the medium was replaced with a medium supplemented with 0.01 mg/mL puromycin dihydrochloride (SIGMA, Cat No. P9020-10 ML). Then, the cells were passaged once or twice a week for 2 weeks, and a cell stock was prepared using CELLBANKER I plus (Takara Bio, Cat No. CB-021). Cell line stock was stored at −80° C. Using Edit-R Lentiviral sgRNA Non-targeting Control #1, the Negative Control sequence was introduced into the SU-DHL-4 cell line, which was referred to as SU-DHL-4 NC strain, and using Edit-R Human DCAF16 Lentiviral sgRNA, […] sequence (SEQ ID NO: 1) was introduced into the SU-DHL-4 cell line, which was referred to as SU-DHL-4 DCAF16 KO1 strain, […] sequence (SEQ ID NO: 2) was introduced into the SU-DHL-4 cell line, which was referred to as SU-DHL-4 DCAF16 KO2 strain, and […] sequence (SEQ ID NO: 3) was introduced into the SU-DHL-4 cell line, which was referred to as SU-DHL-4 DCAF16 KO 3 strain.
The cultured DCAF16 KO SU-DHL-4 cells were seeded at 2000 cells/well in a transparent 384-well plate (Code No. 781182, Greiner bio-one). After seeding, the cells were pre-cultured at 37° C. in a carbon dioxide gas incubator for 18 to 25 hours. […]

Row | SMILES | Activity Attenuation Ratio | IC50 | IC50 (Homo sapiens)
1 | CCC(=O)N1c2ccccc2[C@H](Nc2ccc(C(=O)N3CC(C(=O)N[C@H]4CC[C@H](N[C@@H]5C[C@H](C)N(C(=O)CC)c6ccccc65)CC4)C3)cc2)C[C@@H]1C [Compound 8r, 1-(4-(((2S,4R)-2-Methyl-1-propionyl-1,2,3,4-tetrahydroquinolin-4-yl)amino)benzoyl)-N-((1R,4R)-4-(((2S,4R)-2-methyl-1-propionyl-1,2,3,4-tetrahydroquinolin-4-yl)amino)cyclohexyl)azetidine-3-carboxamide] | 224 | 0.0674 µM | 
2 | CCC(=O)N1c2ccccc2[C@H](Nc2ccc(-c3cnn(CC(=O)Nc4ccc(C5=NCc6nnc(C)n6-c6sc(C)c(C)c65)cc4)c3)cc2)C[C@@H]1C [Compound 14a, 2-(4-(4-(((2S,4R)-2-Methyl-1-propionyl-1,2,3,4-tetrahydroquinolin-4-yl)amino)phenyl)-1H-pyrazol-1-yl)-N-(4-(2,3,9-trimethyl-6H-thieno[3,2-f][1,2,4]triazolo[4,3-a][1,4]diazepin-4-yl)phenyl)acetamide] | 228 |  | 0.004 µM
3 | CCC(=O)N1c2ccccc2[C@H](Nc2ccc(NC(=O)CCCC(=O)Nc3cccc(Oc4ccccc4-c4cn(C)c(=O)cc4OC)c3)cc2)C[C@@H]1C [Compound 16m, N^1-(3-(2-(4-Methoxy-1-methyl-6-oxo-1,6-dihydropyridin-3-yl)phenoxy)phenyl)-N5-(4-(((2S,4R)-2-methyl-1-propionyl-1,2,3,4-tetrahydroquinolin-4-yl)amino)phenyl)glutaramide] | 338 |  | 0.208 µM
4 | Cc1sc2c(c1C)C(c1ccc(C(=O)N3CCC(NC(=O)c4ccc(C5=N[C@@H](CC(=O)OC(C)(C)C)c6nnc(C)n6-c6sc(C)c(C)c65)cc4)CC3)cc1)=NCc1nnc(C)n1-2 [Compound 14p, tert-Butyl (S)-2-(2,3,9-trimethyl-4-(4-((1-(4-(2,3,9-trimethyl-6H-thieno[3,2-f][1,2,4]triazolo[4,3-a][1,4]diazepin-4-yl)benzoyl)piperidin-4-yl)carbamoyl)phenyl)-6H-thieno[3,2-f][1,2,4]triazolo[4,3-a][1,4]diazepin-6-yl)acetate] | 408 |  | 0.407 µM
5 | CCC(=O)N1c2ccccc2[C@H](Nc2ccc(NC(=O)COCC(=O)Nc3ccc(C4=NCc5nnc(C)n5-c5sc(C)c(C)c54)cc3)cc2)C[C@@H]1C [Compound 14d, N-(4-(((2S,4R)-2-Methyl-1-propionyl-1,2,3,4-tetrahydroquinolin-4-yl)amino)phenyl)-2-(2-oxo-2-((4-(2,3,9-trimethyl-6H-thieno[3,2-f][1,2,4]triazolo[4,3-a][1,4]diazepin-4-yl)phenyl)amino)ethoxy)acetamide] | 96 |  | 0.00961 µM
6 | CCC(=O)N1c2ccccc2[C@H](Nc2ccc(-c3nnc(CNC(=O)[C@H]4CC[C@H](N[C@@H]5C[C@H](C)N(C(=O)CC)c6ccccc65)CC4)o3)cc2)C[C@@H]1C [Compound 7q, (1R,4R)-4-(((2S,4R)-2-Methyl-1-propionyl-1,2,3,4-tetrahydroquinolin-4-yl)amino)-N-((5-(4-(((2S,4R)-2-methyl-1-propionyl-1,2,3,4-tetrahydroquinolin-4-yl)amino)phenyl)-1,3,4-oxadiazol-2-yl)methyl)cyclohexane-1-carboxamide] | 850 | 0.0797 µM | 
7 | CCC(=O)N1c2ccccc2[C@H](Nc2ccc(C(=O)N3CCn4c(-c5ccc(N[C@@H]6C[C@H](C)N(C(=O)CC)c7ccccc76)cc5)cnc4C3)cc2)C[C@@H]1C [Compound 3e, 1-[(2S,4R)-2-Methyl-4-({4-[3-(4-{[(2S,4R)-2-methyl-1-propionyl-1,2,3,4-tetrahydroquinolin-4-yl]amino}phenyl)-5,6,7,8-tetrahydroimidazo[1,2-a]pyrazine-7-carbonyl]phenyl}amino)-3,4-dihydroquinolin-1(2H)-yl]propan-1-one] | 9515 |  | 0.951 µM
8 | CCNC(=O)C[C@@H]1N=C(c2ccc(SCCCCSc3ccc(C4=N[C@@H](CC(=O)NCC)c5nnc(C)n5-c5ccc(OC)cc54)cc3)cc2)c2cc(OC)ccc2-n2c(C)nnc21 [compound 1, 2,2′-((4S,4'S)-6,6′-((butane-1,4-diylbis(sulfanediyl))bis(4,1-phenylene))bis(8-methoxy-1-methyl-4H-benzo[f][1,2,4]triazolo[4,3-a][1,4]diazepine-6,4-diyl))bis(N-ethylacetamide), reference compound] | 0.23 | 0.0492 µM | 
9 | CCC(=O)N1c2ccccc2[C@H](Nc2ccc(NC(=O)C3CN(C(=O)c4ccc(N[C@@H]5C[C@H](C)N(C(=O)CC)c6ccccc65)cc4)C3)cc2)C[C@@H]1C (relative stereo) [Compound 2h, 1-(4-{[(2S,4R)-2-Methyl-1-propionyl-1,2,3,4-tetrahydroquinolin-4-yl]amino}benzoyl)-N-(4-{[(2S*,4R*)-2-methyl-1-propionyl-1,2,3,4-tetrahydroquinolin-4-yl]amino}phenyl)azetidine-3-carboxamide] | 408 |  | 0.0122 µM
10 | CCC(=O)N1c2ccccc2[C@H](Nc2ccc(-c3cnn(CCNC(=O)c4ccc(Cn5c(C(=O)OCCN(C)C)cc6c5CCCC6=O)cc4)c3)cc2)C[C@@H]1C [Compound 15d, 2-(Dimethylamino)ethyl 1-(4-((2-(4-(4-(((2S,4R)-2-methyl-1-propionyl-1,2,3,4-tetrahydroquinolin-4-yl)amino)phenyl)-1H-pyrazol-1-yl)ethyl)carbamoyl)benzyl)-4-oxo-4,5,6,7-tetrahydro-1H-indole-2-carboxylate] | 7994 |  | 0.858 µM
11 | CCC(=O)N1c2ccccc2[C@H](Nc2ccc(NC(=O)CCCC(=O)Nc3cccc(Oc4ccc(NS(=O)(=O)CC)cc4-c4cn(C)c(=O)cc4OC)c3)cc2)C[C@@H]1C [Compound 16j, N^1-(3-(4-(Ethylsulfonamide)-2-(4-methoxy-1-methyl-6-oxo-1,6-dihydropyridin-3-yl)phenoxy)phenyl)-N5-(4-(((2S,4R)-2-methyl-1-propionyl-1,2,3,4-tetrahydroquinolin-4-yl)amino)phenyl)glutaramide] | 213 | 0.106 µM | 
12 | CCC(=O)N1c2ccccc2C(Nc2ccc(NC(=O)C#CCNC(=O)c3ccc(N[C@@H]4C[C@H](C)N(C(=O)CC)c5ccccc54)cc3)cc2)CC1C (stereo partly drawn) [Compound 6h, 4-(((2S,4R)-2-Methyl-1-propionyl-1,2,3,4-tetrahydroquinolin-4-yl)amino)-N-(4-((4-((2-methyl-1-propionyl-1,2,3,4-tetrahydroquinolin-4-yl)amino)phenyl)amino)-4-oxobut-2-yn-1-yl)benzamide] | 2250 |  | 0.0068 µM
